# What was measured:
# [1] = system: Mycobacterium tuberculosis; assay: Antimycobacterial activity against Mycobacterium tuberculosis mc2 6230 assessed as inhibition of mycobacterial growth incubated for 10 to 14 days by resazurin microtiter assay; assay type: functional; details: time 10-14 day
# [2] = Cytotoxicity against C57BL/6 mouse BMDM cells assessed as reduction in cell viability measured after 24 hrs by resazurin dye based assay; assay type: toxicity; details: C57BL/6, mouse, BMDM cells (bone marrow-derived macrophages)
# [3] = system: Mycobacterium marinum; assay: Antimycobacterial activity against Mycobacterium marinum ATCC BAA-535/M assessed as inhibition of mycobacterial growth incubated for 10 to 14 days by resazurin microtiter assay; assay type: functional; details: time 10-14 day
# [4] = system: Mycobacteroides abscessus; assay: Antimycobacterial activity against Mycobacterium abscessus CIP104536T with rough morphotype assessed as inhibition of mycobacterial growth incubated for 3 to 5 days by resazurin microtiter assay; assay type: functional; details: time 3-5 day
# [5] = system: Mycobacteroides abscessus; assay: Antimycobacterial activity against Mycobacterium abscessus CIP104536T with smooth morphotype assessed as inhibition of mycobacterial growth incubated for 3 to 5 days by resazurin microtiter assay; assay type: functional; details: time 3-5 day
Compound,MIC50 [1],MIC90 [1],CC50 at 24 h [2],MIC50 [3],MIC90 [3],MIC50 [4],MIC50 [5],MIC90 [4],MIC90 [5]
O=C(/C=C/c1ccncc1)NO,35.1 µg/mL,42.9 µg/mL,< 10 µg/mL,75 µg/mL,> 100 µg/mL,> 100 µg/mL,> 100 µg/mL,–,–
O=C(/C=C/C=C/c1cccc(F)c1)NO,7.6 µg/mL,> 100 µg/mL,< 10 µg/mL,7.5 µg/mL,39.3 µg/mL,6 µg/mL,36.8 µg/mL,19 µg/mL,> 100 µg/mL
CCCCCCCOc1ccc(/C=C/C=C/C(=O)NO)cc1,> 100 µg/mL,–,67 µg/mL,48.3 µg/mL,68.3 µg/mL,> 100 µg/mL,> 100 µg/mL,–,–
O=C(/C=C/C=C/c1ccccc1)NO,> 100 µg/mL,–,< 10 µg/mL,14.9 µg/mL,91.4 µg/mL,> 100 µg/mL,> 100 µg/mL,–,–
O=C(/C=C/C=C/c1ccc(C(F)(F)F)cc1)NO,28.8 µg/mL,80.6 µg/mL,< 10 µg/mL,> 100 µg/mL,–,5.5 µg/mL,> 100 µg/mL,10.9 µg/mL,–
O=C(/C=C/c1cccc(C(F)(F)F)c1)NO,12.8 µg/mL,> 100 µg/mL,< 10 µg/mL,7.1 µg/mL,47.7 µg/mL,7.8 µg/mL,72.5 µg/mL,16 µg/mL,74.8 µg/mL
CCCCCCCCCC(=O)ONC(=O)/C=C/C=C/c1ccc(F)cc1,20.3 µg/mL,34.7 µg/mL,> 125 µg/mL,13.2 µg/mL,17.3 µg/mL,> 100 µg/mL,> 100 µg/mL,–,–
O=C(/C=C/C=C/c1cccc(C(F)(F)F)c1)NO,50.5 µg/mL,> 100 µg/mL,< 10 µg/mL,10.1 µg/mL,> 100 µg/mL,4.4 µg/mL,52.3 µg/mL,7 µg/mL,> 100 µg/mL
NNC(=O)/C=C/C=C/c1ccc(F)cc1,27.4 µg/mL,> 100 µg/mL,> 125 µg/mL,20.6 µg/mL,> 100 µg/mL,> 100 µg/mL,> 100 µg/mL,–,–
COc1ccc(/C=C/C=C/C(=O)NN)cc1,18.1 µg/mL,46.7 µg/mL,120 µg/mL,12.6 µg/mL,13.3 µg/mL,> 100 µg/mL,> 100 µg/mL,–,–
O=C(/C=C/c1ccc(-c2ccccc2)cc1)NO,20.6 µg/mL,> 100 µg/mL,16 µg/mL,20.8 µg/mL,68.6 µg/mL,> 100 µg/mL,> 100 µg/mL,–,–
CCCC(=O)ONC(=O)/C=C/C=C/c1ccc(F)cc1,11.9 µg/mL,59.3 µg/mL,> 125 µg/mL,7.9 µg/mL,22.4 µg/mL,> 100 µg/mL,> 100 µg/mL,–,–
O=C(/C=C/c1cccc(F)c1)NO,13.5 µg/mL,> 100 µg/mL,< 10 µg/mL,3.3 µg/mL,25.9 µg/mL,7.6 µg/mL,12.2 µg/mL,68.4 µg/mL,> 100 µg/mL
CCCCCC(=O)ONC(=O)/C=C/c1ccc(OC)cc1,32.8 µg/mL,61.4 µg/mL,> 125 µg/mL,21.2 µg/mL,46.7 µg/mL,> 100 µg/mL,63 µg/mL,–,76.5 µg/mL
O=C(CCc1ccccc1)NO,> 100 µg/mL,–,95 µg/mL,11.9 µg/mL,89.3 µg/mL,> 100 µg/mL,> 100 µg/mL,–,–
O=C(/C=C/C=C/c1ccc(-c2ccccc2)cc1)NO,> 100 µg/mL,–,> 125 µg/mL,> 100 µg/mL,–,6.9 µg/mL,31.8 µg/mL,7.5 µg/mL,> 100 µg/mL
O=C(/C=C/c1ccc(F)cc1)NO,47.3 µg/mL,55.4 µg/mL,< 10 µg/mL,3.5 µg/mL,23.9 µg/mL,> 100 µg/mL,> 100 µg/mL,–,–
CCCCCC(=O)ONC(=O)/C=C/C=C/c1ccc(OC)cc1,13.8 µg/mL,22.9 µg/mL,< 10 µg/mL,26.8 µg/mL,54.5 µg/mL,> 100 µg/mL,> 100 µg/mL,–,–
O=C(/C=C/c1ccc2c(c1)OCO2)NO,31.9 µg/mL,> 100 µg/mL,34 µg/mL,> 100 µg/mL,–,> 100 µg/mL,> 100 µg/mL,–,–

# Source: ChEMBL document CHEMBL5143637, “Design, synthesis and antibacterial activity against pathogenic mycobacteria of conjugated hydroxamic acids, hydrazides and O-alkyl/O-acyl protected hydroxamic derivatives” (Bioorg Med Chem Lett, 2022)
